Patent US5700776A, “Medicaments comprising glicentin as active ingredient” (Nisshin Flour Milling Co., Ltd., priority 1992, dated 1997)

Tests used:
[1] = test system: arginine loaded dogs; experiment: Infusion of glicentin and glucagon into the pancreatic artery of arginine loaded dogs; plasma hormones and blood glucose; assay type: in vivo, dog; settings: glicentin 100 pmol or 400 pmol infused into pancreatic artery for 10 minutes
Procedure: Healthy mongrel dogs weighing 13 to 17 kg were subjected to the test after an overnight fast (A. Ohneda et al., Horm. Metab. Res., 9, 447-452 (1977)).
The animals were anesthetized with sodium pentobarbital (Nembutal®) and their abdomens were opened. […] After the operation was completed, saline solution containing 0.5% arginine was infused into the pancreatic artery at a constant rate of 2 ml/min through the cannula using an infusion pump. […] 4 ml portions of blood samples for hormone assay were collected at various intervals into a glass tube containing 1000 KIU aprotinine and 10 mg EDTA.
The plasma insulin was measured in accordance with a known method mentioned in C.
The blood glucose was measured for blood drawn from the femoral artery by the glucose oxidase method using a test kit for the determination of blood glucose (available from Wako Pure Chemical Industries, Japan under the trade name of "Glucose B-Test Wako").

[2] = test system: male MALB/c mice; experiment: Intraperitoneal administration to mice, observation of appearance; assay type: in vivo; settings: 10 mg/kg intraperitoneally, male MALB/c mice (6 weeks age)

For “human glicentin (natural type): peptide of 69 amino acid residues, SEQ ID NO:2, produced by genetic engineering in E. coli”, the “insulin secretion (plasma insulin, IRI)” value ([1]; anesthetized dogs under 0.5% arginine infusion) was “stimulates insulin secretion”, the “glucagon level (IRG(G 21))” value ([1]; antiserum G 21) was “not increased” and the blood glucose levels ([1]; blood from femoral artery, glucose oxidase method) was “no change in blood glucose levels”. For the same substance, the change in appearance [2] was “no change in appearance”.
